According to PubChem BioAssay AID743377 (Vanderbilt Specialized Chemistry Center, 2014):
Activity calls are given as the source filed them. How the calls were made is not given here.

Biological target: D(2) dopamine receptor (Homo sapiens) (UniProt P14416)
Assay: D2L dopamine receptor antagonism, confirmation, counter-screen for D4 antagonist project, cell-based, D2L isoform, human (AID 743377)
Details: D2L-expressing cells, antagonist counterscreen, functional read-out

D(2) dopamine receptor (Homo sapiens), sequence (P14416 whole entry, looked up, canonical isoform): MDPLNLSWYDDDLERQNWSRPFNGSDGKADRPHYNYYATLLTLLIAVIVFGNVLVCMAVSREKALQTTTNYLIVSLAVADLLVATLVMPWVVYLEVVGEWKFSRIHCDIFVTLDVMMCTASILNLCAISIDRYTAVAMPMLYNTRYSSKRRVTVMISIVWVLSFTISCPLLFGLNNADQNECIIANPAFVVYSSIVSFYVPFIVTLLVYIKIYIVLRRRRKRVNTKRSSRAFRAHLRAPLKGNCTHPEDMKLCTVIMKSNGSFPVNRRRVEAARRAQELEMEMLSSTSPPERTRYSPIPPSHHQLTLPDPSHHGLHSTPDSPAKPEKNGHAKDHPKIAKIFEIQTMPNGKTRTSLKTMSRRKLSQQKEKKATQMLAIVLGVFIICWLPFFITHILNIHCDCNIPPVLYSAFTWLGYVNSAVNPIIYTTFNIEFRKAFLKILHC

IC50: > 20 µM (inactive)
SMILES: Clc1ccc(CN2CCO[C@H](CCc3ccccc3)C2)cc1
